Measurements as given in paper PMC4826176, “Identification of H7 as a novel peroxiredoxin I inhibitor to induce differentiation of leukemia cells” (Oncotarget, 2015).

Key:
[1] = target: T1, Prdx I (endogenous, NB4 cell lysate) (Homo sapiens, UniProt Q06830); assay: cellular thermal shift assay (CETSA) in lysate, Western blot; format: biochemical; conditions: NB4 lysate in PBS, heated 3 min at different temperatures (75.9°C for dose dependence)
T1 construct: gene PRDX1; endogenous untagged protein in NB4 cell lysate, detected by Western blot
T1 sequence (Q06830 2-199): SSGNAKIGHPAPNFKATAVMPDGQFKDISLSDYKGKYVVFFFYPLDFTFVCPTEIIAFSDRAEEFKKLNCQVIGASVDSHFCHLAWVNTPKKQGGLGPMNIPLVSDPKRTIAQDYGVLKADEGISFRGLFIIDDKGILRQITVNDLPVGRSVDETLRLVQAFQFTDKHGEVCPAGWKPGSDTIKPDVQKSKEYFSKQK

[2] = target: T2, Prdx I (recombinant human peroxiredoxin I) (Homo sapiens, UniProt Q06830); assay: peroxidase activity, Trx-Trx reductase-NADPH-coupled spectrophotometric assay; format: biochemical
T2 construct: gene PRDX1; full-length, N-terminal His6 tag (pET28a), expressed in E. coli BL21, purified
T2 sequence (Q06830 2-199): T1 sequence (Q06830 2-199)

[3] = target: T2, Prdx I (recombinant human peroxiredoxin I); assay: surface plasmon resonance (Biacore T200), single-cycle kinetics; format: binding; conditions: read-out: dissociation constant
Text: surface plasmon resonance (Biacore T200), single-cycle kinetics on Prdx I (recombinant human peroxiredoxin I) | H7 rapidly associated and disassociated from the immobilized Prdx I at a dissociation constant of […]

IC50 [2]: 7.85 µM | Kd [3]: 1570 nM
Structure (SMILES): CCc1ccc(S(=O)(=O)N=C2C=CC(=O)c3ccccc32)cc1 [H7]
cellular thermal shift assay (CETSA) in lysate, Western blot [1]: addition of H7 but not DMSO into the cell lysates increased the stability of Prdx I
